# Test results published in patent EP0479888B1, “IMPROVED BUILDER-CONTAINING AQUEOUS CLEANER/DEGREASER MICROEMULSION COMPOSITIONS” (BUCKEYE INTERNATIONAL, INC., priority 1989, dated 1991).
# Settings: water
structure (smiles),measurement,value
CCCCOC(C)=O [n-butyl acetate],aqueous ambient temperature solubility,0.7 wt.%
